Results: patent publication US7781428B2 (Pfizer Inc., priority 2006, dated 2010)

Target: T1, mineralocorticoid receptor (MR) (Homo sapiens, UniProt P08235)
T1 construct: expressed in transfected cells; host or cells: Huh7 (human liver cells)
T1 sequence (P08235 726-964 limits assumed): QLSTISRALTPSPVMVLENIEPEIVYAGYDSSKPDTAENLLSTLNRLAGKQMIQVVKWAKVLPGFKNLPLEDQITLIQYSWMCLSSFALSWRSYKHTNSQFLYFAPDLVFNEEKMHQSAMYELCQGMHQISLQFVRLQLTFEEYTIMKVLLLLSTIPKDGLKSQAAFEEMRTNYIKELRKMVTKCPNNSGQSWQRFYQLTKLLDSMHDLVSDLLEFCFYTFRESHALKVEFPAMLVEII
Test: Cell-based Gal4 response element-controlled luciferase reporter assay (MR antagonism)
Details: Huh7 human liver cells transfected with Gal4 DBD-MR LBD fusion and luciferase reporter; block of agonist-induced activation; overnight incubation
Method in brief: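 Transiently transfected Huh7 cells were treated with agonist at 70-80% of full activation plus compounds for 18-20 h in medium with charcoal/dextran-stripped serum. Luciferase read-out was normalized to β-galactosidase (ONPG, OD420); IC50 came from curve fitting.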

SMILES	IC50
CC(C)C1C2COc3cc(C(=O)O)ccc3C2=NN1c1ccc(C#N)c(Cl)c1 (racemic) [Example 74, 2-(3-chloro-4-cyanophenyl)-3-isopropyl-2,3,3a,4-tetrahydrochromeno[4,3-c]pyrazole-7-carboxylic acid]	588 nM
N#Cc1ccc(N2N=C3c4ccc(C(=O)O)cc4CCC3C2c2ccoc2)cc1Cl (racemic) [Example 46, 2-(3-chloro-4-cyanophenyl)-3-(3-furyl)-3,3a,4,5-tetrahydro-2H-benzo[g]indazole-7-carboxylic acid]	69 nM
CCOC(=O)c1ccc2c(c1)CCC1C2=NN(c2ccc(C#N)c(Cl)c2)C1c1ccc(F)cc1 (stereo not shown) [Example 1, ethyl 2-(3-chloro-4-cyanophenyl)-3-(4-fluorophenyl)-3,3a,4,5-tetrahydro-2H-benzo[g]indazole-7-carboxylate]	1070 nM
Cc1cc(N2N=C3c4ccc(O)cc4CC[C@H]3[C@H]2c2ccc(F)cc2)ccc1C#N [Example 82, 4-((3S,3aS)-3-(4-fluorophenyl)-7-hydroxy-3,3a,4,5-tetrahydrobenzo[g]indazol-2-yl)-2-methylbenzonitrile]	> 1000 nM
